Test results from patent US20030165446A1, “Divalent manganese salts for reducing odour resulting from bacterial decomposition of human perspiration” (priority 2003, published 2003).

Columns and labels:
[1] = background statement; cited from earlier work
[2] = tested on: natural sweat (human axillary sweat); details: 1 mg of active material per ml of sweat, i.e. 0.1%, incubated 18 h then 24 h at 37° C., with respect to control sweat without deodorant agent; for Mean % of reduction in the odor annoyance (mean over 18 h and 24 h): hedonic grade
Procedure: A test of inhibition of the evolution of odors was carried out on natural sweat.
The principle of this test consists in adding the deodorant agent to fresh sweat and then in carrying out an olfactory evaluation by a jury of experts after incubating for 18 hours and then 24 hours at 37° C.
Thus, the axillary sweat was taken from several human models in a sauna and was combined to produce a sample of sweat. In order to obtain the characteristic nauseating odor of sweat, this sample of sweat was incubated […]. […] The active substance was then introduced into each of the flasks to be tested.
Per 1 mg of active material per ml of sweat, i.e. 0.1%: […]

Corynebacterium xerosis = type: cell-based; details: dilutions in agar medium
Procedure: (§1) The microbiostatic activity of MnCl2 was determined in comparison with triclosan (deodorant active principle of the prior art) by the method of dilutions in agar medium.
(§2) One hundred μl of the ethanolic solution were added to 0.9 ml of agar culture heated beyond the melting point to 45° C. (medium chosen as a function of the nutrient requirements of the strain studied). After stirring with a Vortex device, successive dilutions in geometric progression in a ratio of 2 of the solution obtained were carried out using agar culture medium heated beyond the melting point to 45° C. One ml of each dilution was introduced into the wells of a microplate (Flacon [sic], 24 wells). Four μl of microbial suspension were deposited at the surface of the agar medium.
(§3) Two control wells were also prepared: 100 μl H2O+0.9 ml of culture medium (growth control), 100 μl ethanol+0.9 ml of culture medium.
(§4) After incubating under conditions (temperature, atmosphere and duration) dependent on the strain studied, the Minimum Inhibitory Concentration (MIC) is given by the lowest concentration of product which inhibits microbial growth.
(§5) Results: expressed in % w/v

[3] = tested on: Staphylococcus epidermidis; type: cell-based; details: dilutions in agar medium
Procedure: as §1, §2, §3, §4, §5

| Compound | solubility in water [1] | Mean % of reduction in the strength of the odor (mean over 18 h and 24 h) [2] [%] | Mean % of reduction in the odor annoyance (mean over 18 h and 24 h) [2] [%] | Minimum Inhibitory Concentration (MIC) (Corynebacterium xerosis) | Minimum Inhibitory Concentration (MIC) [3] |
| --- | --- | --- | --- | --- | --- |
| Oc1cc(Cl)ccc1Oc1ccc(Cl)cc1Cl [Triclosan, 2,4,4′-trichloro-2′-hydroxydiphenyl ether] | insoluble | −39 | −27 | 4 × 10^−6 % w/v | 3 × 10^−8 % w/v |
| manganese chloride [MnCl2] | – | −43 | −31 | 0.23 % w/v | 0.23 % w/v |
